According to patent US20080167387A1, “Microglia Facilitated Amyloidogenesis Assay” (Pfizer Inc., priority 2005, published 2008):
Entries after “also recorded” stand apart in the source; their conditions may differ. Like-named read-outs stand apart in the source and are kept apart here.

Tests used:
[1] = test system: amyloid formation from Aβ(1-42) peptides mediated by rat primary microglia; experiment: Microglial-facilitated amyloidogenesis (MFA) assay, thioflavin S staining; assay type: cell-based; details: for amyloid formation mediated by microglia (thioflavin S staining) / amyloid formation mediated by rat primary microglia (thioflavin S staining): 37° C., 18 hours; for amyloid formation mediated by rat primary microglia (thioflavin S staining): 0.32 μM or 3.2 μM
Procedure: Primary rat brain microglia prepared as described in Example 1, were plated into Falcon black/clear 96 well plates at a concentration of 2×10^5 cells per well. The microglia were allowed to attach to cell walls after incubation at 37° C. for several hours to overnight. Fresh DMEM, with 10% fetal bovine serum, 0.1% penicillin/streptomycin and L-glutamine at 200 mM was used to replace the old media, while cells were gently washed to remove debris and dead cells.
[…] (The pre-treatment step is optional.) After pre-treatment, the candidate compound and Aβ (1-42) peptides were added to the pre-treated cells. The final concentration of Aβ (1-42) peptides was 10 μM. […] The final volume for each well was about 100 μl/well.
Aβ (1-42) peptides and Aβ (1-40) peptides, obtained from American Peptides of Sunnyvale, Calif., were stored at −20° C. Before use, Aβ (1-42) peptides were allowed to warm to room temperature for 15 minutes. To dissolve the Aβ (1-42) peptides, 200 μl of sterile water was added to the peptides. Each sample of peptides was vortexed to dissolve the peptides. Each sample was then diluted with 19 mls of MSFM. The final concentration of Aβ (1-42) peptides was 10 μM.
[…] After incubation, microglia were fixed with 100 μl of 95% ethanol and 5% acetic acid, which was directly poured into the media, and then incubated for 5 min. The media were poured out, and another 100 μl of fresh fixative having 95% ethanol and 5% acetic acid was added to the microglia for 10 min.
Fixed cells were stained with 100 μl thioflavin S solution, obtained from Sigma of St Louis, Mo. for approximately 3-5 min. Thioflavin S solution was 0.125 mg/ml in 40% ethanol, filtered through #1 Whatman filter paper before use.
Cells were washed twice, each time for 5 min, with 100 μl of 70% ethanol. After the washes, the cells were examined using an FITC filter under a fluorescent microscope. For each well, 3 images were collected and images were captured on a Zeiss Axiovert 100 M, with a 10× objective, using a digital CCD camera, and using MicroMax obtained from Roper Instruments of Tuscon, Ariz. Each treatment condition was run in triplicate, with 3 images collected per well to avoid areas with sparse cell growth and debris. Relative fluorescence intensity was measured.

[2] = test system: rat primary microglia; experiment: Microglial viability, MTT reaction product
Procedure: The viability of microglia was also determined by measuring the level of the tetrazolium salt 3,[4,5-dimethylthiazol-2-yl]-2,5-diphenyltetrazolium bromide (MTT) reaction product, using the method provided by Trevigen Inc. of Gaithersburg, Md.

[3] = test system: intracellular cAMP in rat primary microglia; experiment: Level of intracellular cAMP in microglia; assay type: cell-based; details: 1 μM, about 20 minutes
Procedure: The effect on the level of intracellular cAMP in microglia by PGE2 was also investigated. Rat primary microglia were prepared using the methods described in Example 1, and were exposed to PGE2, at a concentration of 1 μM, for about 20 minutes. […] Microglial viability was investigated by measuring the MTT reaction product in microglia.

[4] = Example 15, prostaglandin E2 receptor agonists
[5] = 32 nM-10 μM, one hour prior to 10 μM Aβ(1-42)

For `CC[C@H](C)C(=O)O[C@H]1CCC=C2C=C[C@H](C)[C@H](CC[C@@H]3C[C@@H](O)CC(=O)O3)[C@H]21` [mevastatin], the “result in the MFA assay” value ([1]; conditions not given) was “very positively”.
With `NC[C@H](O)c1ccc(O)c(O)c1` [Norepinephrine] the cell-mediated amyloidogenesis ([1]; conditions not given) was “blocks”.
In the case of `CS(=O)(=O)NC(=O)CCC/C=C\C[C@H]1C(=O)C[C@@H](O)[C@@H]1/C=C/[C@@H](O)COc1ccccc1` [sulprostone], the “microglial viability (MTT reaction product)” value (shortened to “microglial viability”) [2, 4] is reported as “neither butaprost nor sulprostone had any effect”.
For `CC(C)(C)c1ccc(CN(Cc2cccc(OCC(=O)O)c2)S(=O)(=O)c2cccnc2)cc1` [Compound I, (3-{[(4-tert-Butyl-benzyl)-(pyridine-3-sulfonyl)-amino]-methyl}-phenoxy)-acetic acid], the “amyloid formation mediated by microglia (thioflavin S staining)” value (“amyloid formation mediated by microglia” below) [1, 5] was “inhibited”.
In the case of `CCCC1([C@H](O)C/C=C/[C@H]2[C@H](O)CC(=O)[C@@H]2CCCCCCC(=O)OC)CCC1` [butaprost], the “microglial viability” value [2, 4] is reported as “neither butaprost nor sulprostone had any effect” and the “amyloid formation mediated by microglia” value [1, 5] is reported as “inhibit”.
`CCCCC[C@H](O)/C=C/[C@H]1[C@H](O)CC(=O)[C@@H]1C/C=C\CCCC(=O)O` [PGE2, Prostaglandin E2] was tested, and the “microglial viability” value [2] was “did not lead to any decrease”, the “level of intracellular cAMP in microglia” value [3] was “significantly increased” and the “level of intracellular cAMP in microglia” value ([3]; listed as prostaglandin subtype EP2) was “increases”. For the same molecule, the “amyloid formation mediated by rat primary microglia (thioflavin S staining)” value ([1]; from one hour prior to 10 μM Aβ(1-42)) was “able to reduce” and the “amyloid formation mediated by rat primary microglia (thioflavin S staining)” value ([1]; from one hour prior to 10 μM Aβ(1-42), listed as prostaglandin EP2 sub-type) was “inhibitory effect”.
`CC(C)c1c(C(=O)Nc2ccccc2)c(-c2ccccc2)c(-c2ccc(F)cc2)n1CC[C@@H](O)C[C@@H](O)CC(=O)O` [atorvastatin] was tested, and the “result in the MFA assay” value ([1]; conditions not given) was “very positively”.
`CCCC(=O)Nc1ncnc2c1ncn2[C@@H]1O[C@@H]2COP(=O)(O)O[C@H]2[C@H]1OC(=O)CCC` [db-cAMP, dibutyryl-cAMP] was tested, and the “microglial viability” value ([2]; Example 13, cAMP analogs) was “neither db-cAMP nor 8-Br cAMP had any effect” and the “amyloid formation mediated by microglia” value ([1]; db-cAMP 8-80 μM, 8-Br cAMP 25-250 μM, from one hour prior to 10 μM Aβ(1-42)) was “inhibited; also recorded: inhibition”.
In the case of `CCCCc1ccc(CN(CCCCCCC(=O)O)S(C)(=O)=O)cc1` [Compound II], the “amyloid formation mediated by microglia” value [1, 5] is reported as “inhibited”.
With `CC[C@H](C)C(=O)O[C@H]1C[C@@H](C)C=C2C=C[C@H](C)[C@H](CC[C@@H]3C[C@@H](O)CC(=O)O3)[C@H]21` [lovastatin] the “result in the MFA assay” value ([1]; conditions not given) was “very positively”.
